Like-named read-outs stand apart in the source and are kept apart here.
What was measured:
[1] = test system: SARS-CoV-2; test: microbe, parasite or virus in culture; assay type: cell-based
[2] = in vitro; settings: African green monkey
[3] = in vitro; settings: human
[4] = test system: SARS-CoV-2; test: microbe, parasite or virus in culture; assay type: cell-based; settings: for EC50: Severe acute respiratory syndrome coronavirus 2, Vero, 48 h, read-out: EC50 (95% CI)
[5] = test system: A549/ACE2 cells
[6] = test system: Vero cells; settings: African green monkey
[7] = in vivo; cited from earlier work
[8] = test system: MERS-CoV; test: microbe, parasite or virus in culture; assay type: cell-based; settings: Middle East respiratory syndrome-related coronavirus, Vero, 48 h, read-out: EC50 (95% CI)

Structure (SMILES) | Decrease in mean SARS-CoV-2 titer compared to the control [1] [log] | CC50 [2] [µM] | CC50 [3] [µM] | EC50 [4] [µM] | SARS-CoV-2 titer after treatment (in words) [1] | Concentration at which cellular toxicity was detected ([5]; human) [µM] | Concentration at which cellular toxicity was observed [6] [µM] | Peak human serum concentration [7] [µM] | SARS-CoV-2 titer after treatment (in words) [4] | SARS-CoV-2 replication after treatment (in words) [1] | SARS-CoV-2 replication after treatment (in words) [4] | EC50 ([1]; Severe acute respiratory syndrome coronavirus 2, A549-ACE2, 48 h, read-out: EC50 (95% CI)) [µM] | EC50 [8] [µM] | Cellular viability / toxicity compared to the media control (in words) [5]
C[C@H]1COc2c(N3CCN(C)CC3)c(F)cc3c(=O)c(C(=O)O)cn1c23 [Levofloxacin, levofloxacin] | 1.4 | > 600 | > 600 | 419 | – | – | – | – | – | – | – | – | – | –
COc1c(N2C[C@@H]3CCCN[C@@H]3C2)c(F)cc2c(=O)c(C(=O)O)cn(C3CC3)c12 [Moxifloxacin, moxifloxacin] | 2.2 | > 600 | > 600 | 240 | below the level of detection | ≥ 300 | ≥ 300 | 8.6 | below the level of detection | – | – | – | – | –
O=C(Nc1ccc([N+](=O)[O-])cc1Cl)c1cc(Cl)ccc1O [niclosamide] | – | – | – | – | – | – | – | – | – | below the level of detection | below the level of detection | – | – | –
CCn1cc(C(=O)O)c(=O)c2cc(F)c(N3CCNCC3)nc21 [Enoxacin, enoxacin] | – | > 600 | > 600 | 126 | – | – | ≥ 37.5 | 11.2 | – | – | – | 227 | 343 | not different from the media control
O=C(O)c1cn(C2CC2)c2cc(N3CCNCC3)c(F)cc2c1=O [Ciprofloxacin, ciprofloxacin] | – | – | – | 247 | – | – | – | 7.2 | below the level of detection | – | – | – | – | –
